Measurements taken from ChEMBL document CHEMBL1137857, “Design and synthesis of substituted N-methylbenzamide analogues derived from SR 48,968 as neurokinin-2 receptor antagonists” (Bioorg Med Chem Lett, 2004).

How the values were obtained:
[1] = Tested for the ability to inhibit maximum contraction obtained in the presence of [b-Ala8] NKA(4-10) in isolated guinea pig trachea
[2] = target: T1, Substance-K receptor (Cavia porcellus) (UniProt Q64077); test: Antagonistic activity against Tachykinin receptor 2 binding to [b-Ala8] NKA(4-10) in isolated guinea pig trachea
T1 sequence (whole entry): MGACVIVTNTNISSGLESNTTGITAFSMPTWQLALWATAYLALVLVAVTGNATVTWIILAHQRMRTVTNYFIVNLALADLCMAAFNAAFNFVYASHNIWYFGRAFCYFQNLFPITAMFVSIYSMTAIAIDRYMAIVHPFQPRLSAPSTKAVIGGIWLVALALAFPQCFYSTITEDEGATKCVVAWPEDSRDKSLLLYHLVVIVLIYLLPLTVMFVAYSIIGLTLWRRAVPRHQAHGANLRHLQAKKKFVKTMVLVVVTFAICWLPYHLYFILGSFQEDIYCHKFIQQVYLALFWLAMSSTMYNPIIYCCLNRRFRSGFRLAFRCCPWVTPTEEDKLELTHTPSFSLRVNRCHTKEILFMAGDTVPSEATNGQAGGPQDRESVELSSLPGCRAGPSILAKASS

Substance-K receptor = target: T2, Substance-K receptor (Bos taurus, UniProt P05363); test: Binding affinity against bovine Tachykinin receptor 2
T2 sequence (P05363 whole entry): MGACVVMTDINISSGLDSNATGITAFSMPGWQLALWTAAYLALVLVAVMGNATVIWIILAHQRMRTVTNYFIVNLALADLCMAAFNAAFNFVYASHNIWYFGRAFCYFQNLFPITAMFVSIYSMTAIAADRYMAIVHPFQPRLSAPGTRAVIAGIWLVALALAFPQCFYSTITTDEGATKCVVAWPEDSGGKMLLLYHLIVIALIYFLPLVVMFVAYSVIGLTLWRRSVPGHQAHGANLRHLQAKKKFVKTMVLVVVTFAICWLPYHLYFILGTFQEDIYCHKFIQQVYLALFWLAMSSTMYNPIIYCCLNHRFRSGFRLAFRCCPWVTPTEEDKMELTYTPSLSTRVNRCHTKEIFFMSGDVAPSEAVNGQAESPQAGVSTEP

Structure (SMILES)	pKb [2]	Ki (Substance-K receptor) [nM]	Response [1] [%]
CC(=O)Nc1ccccc1C(=O)N(C)C[C@H](CCN1CCC(O)(c2ccccc2)CC1)c1ccc(Cl)c(Cl)c1	< 8		98.3
CN(C[C@H](CCN1CCC(O)(c2ccccc2)CC1)c1ccc(Cl)c(Cl)c1)C(=O)c1ccccc1N=C=S	8.5		95.5
CN(C[C@H](CCN1CCC(O)(c2ccccc2)CC1)c1ccc(Cl)c(Cl)c1)C(=O)c1ccccc1			93.3
CN(C[C@H](CCN1CCC(O)(c2ccccc2)CC1)c1ccc(Cl)c(Cl)c1)C(=O)c1ccccc1N	9.4		98.2
CN(C[C@H](CCN1CCC(O)(c2ccccc2)CC1)c1ccc(Cl)c(Cl)c1)C(=O)c1cccc(N)c1	9.4		97.4
CN(C[C@H](CCN1CCC(O)(c2ccccc2)CC1)c1ccc(Cl)c(Cl)c1)C(=O)c1cccc([N+](=O)[O-])c1	< 8		98.6
CN(C[C@H](CCN1CCC(O)(c2ccccc2)CC1)c1ccc(Cl)c(Cl)c1)C(=O)c1cccc(N=C=S)c1	< 8		95.8
CN(C[C@H](CCN1CCC(O)(c2ccccc2)CC1)c1ccc(Cl)c(Cl)c1)C(=O)c1ccccc1[N+](=O)[O-]	8.5		92.7
CC(=O)NC1(c2ccccc2)CCN(CCC(CN(C)C(=O)c2ccccc2)c2ccc(Cl)c(Cl)c2)CC1 (single isomer, unassigned) [SAREDUTANT]	9.1	0.5	

More lines, main results first:

pKb [2]	Ki (Substance-K receptor) [nM]	Structure (SMILES)	Response [1] [%]
	1	CN(CC(CCN1CCC(O)(c2ccccc2)CC1)c1ccc(Cl)c(Cl)c1)C(=O)c1ccccc1 (stereo unspecified)	
8.4		CC(=O)Nc1ccc(C(=O)N(C)C[C@H](CCN2CCC(O)(c3ccccc3)CC2)c2ccc(Cl)c(Cl)c2)cc1	96.6
9.1		CN(C[C@H](CCN1CCC(O)(c2ccccc2)CC1)c1ccc(Cl)c(Cl)c1)C(=O)c1ccc(N)cc1	95.9
< 8		CC(=O)Nc1cccc(C(=O)N(C)C[C@H](CCN2CCC(O)(c3ccccc3)CC2)c2ccc(Cl)c(Cl)c2)c1	96.3
< 8		CN(C[C@H](CCN1CCC(O)(c2ccccc2)CC1)c1ccc(Cl)c(Cl)c1)C(=O)c1cccc(NC(=O)CBr)c1	98
8.55		CN(C[C@H](CCN1CCC(O)(c2ccccc2)CC1)c1ccc(Cl)c(Cl)c1)C(=O)c1ccc([N+](=O)[O-])cc1	98
< 8		CN(C[C@H](CCN1CCC(O)(c2ccccc2)CC1)c1ccc(Cl)c(Cl)c1)C(=O)c1ccc(N=C=S)cc1	97.6
9.7		CN(C[C@H](CCN1CCC(O)(c2ccccc2)CC1)c1ccc(Cl)c(Cl)c1)C(=O)c1ccc(F)cc1	94.7
< 8		CN(C[C@H](CCN1CCC(O)(c2ccccc2)CC1)c1ccc(Cl)c(Cl)c1)C(=O)c1ccccc1NC(=O)CBr	97.1
8.3		CN(C[C@H](CCN1CCC(O)(c2ccccc2)CC1)c1ccc(Cl)c(Cl)c1)C(=O)c1ccc(NC(=O)CBr)cc1	96
